Test results: patent US20240025862A1, “SUBSTITUTED N-PHENYLURACILS AND SALTS THEREOF, AND USE THEREOF AS HERBICIDAL ACTIVE SUBSTANCES” (Bayer Aktiengesellschaft, priority 2020, published 2024)

Assays:
Format in all cases: in vivo
[1] = test system: Matricaria inodora (MATIN); test: Post-emergence herbicidal action, greenhouse pot test (also comparative test C)
Experimental: (§1) Seeds of monocotyledonous and dicotyledonous weeds and crop plants were placed in sandy loam in plastic or wood-fiber pots, covered with soil and cultivated in a greenhouse under controlled growth conditions. 2 to 3 weeks after sowing, the test plants were treated at the one-leaf stage. The compounds of the invention, formulated in the form of wettable powders (WP) or as emulsion concentrates (EC), were then sprayed onto the green parts of the plants as aqueous suspension or emulsion with addition of 0.5% additive at a water application rate of 600 l/ha (converted). After the test plants had been kept in the greenhouse under optimum growth conditions for about 3 weeks, the activity of the preparations was rated visually in comparison to untreated controls. For example, 100% activity=the plants have died, 0% activity=like control plants.
(§2) Tables A1 to A14 below show the effects of selected compounds of the general formula (I) according to Tables I.1 to I.33 on various harmful plants and at an application rate corresponding to 20 g/ha and less, which were obtained by the experimental method specified above. The appendices “a”, “b” and “c” give differentiation by different dosage with otherwise the same harmful plants tested.
(§3) C. Comparative Herbicidal Action and Crop Plant Compatibility of Two Inventive Compounds (I.7-1 and I.7-115) with a Compound of Similar Structure Known from the Literature (WO2002/098227, a-17 and EP1106607, 3-14) in Post-Emergence Treatment.
(§4) Tables C1-C4 below show the effects of two inventive compounds (I.7-1 and I.7-115) together with a compound of similar structure known from the literature (a-17 in WO2002/098227, and 3-14 in EP1106607) in different crop plants at an application rate corresponding to 5 g/ha or less, which have been obtained by the aforementioned experimental procedure.

[2] = test system: Polygonum convolvulus (POLCO); test: Post-emergence herbicidal action, greenhouse pot test
Experimental: as §1, §2

[3] = test system: Amaranthus retroflexus (AMARE); test: as above; conditions: rated visually after about 3 weeks vs untreated controls, 100% = plants have died
Experimental: as §1, §2

Viola tricolor (VIOTR) = test: as above
Experimental: as §1, §2

[4] = test system: Abutilon theophrasti (ABUTH); test: as above; conditions: rated visually after about 3 weeks vs untreated controls, 100% = plants have died
Experimental: as §1, §2

[5] = test system: Pharbitis purpurea (PHBPU); test: as above
Experimental: as §1, §2

Veronica persica (VERPE) = test: as above
Experimental: as §1, §2

Oryza sativa (ORYSA) = test: Post-emergence crop plant compatibility, greenhouse pot test (also comparative test C); conditions: for Post-emergence action against ORYSA (crop plant compatibility): vs untreated controls
Experimental: as §1
(§5) The observed effects on selected crop plants are reported here in comparison to the untreated controls (values in %). The appendices “a”, “b” and “c” give differentiation by different dosage with otherwise the same crop plants tested.
as §3

[6] = test system: Triticum aestivum (TRZAS); test: Post-emergence crop plant compatibility, greenhouse pot test; conditions: vs untreated controls
Experimental: as §1, §5

[7] = test system: Echinochloa crus-galli (ECHCG); test: Post-emergence herbicidal action, greenhouse pot test (also comparative test C)
Experimental: as §1, §2, §3, §4

[8] = test system: Alopecurus myosuroides (ALOMY); test: as above; conditions: for ALOMY (efficacy in %): comparative test C, application rate 5 g/ha
Experimental: as §1, §2, §3, §4

Setaria viridis (SETVI) = test: as above; conditions: for Post-emergence action against SETVI: 20 g/ha
Experimental: as §1, §2, §3, §4

[9] = rated visually after about 3 weeks vs untreated controls, 100% = plants have died
[10] = comparative test C, application rate 1.25 g/ha

SMILES	Post-emergence action against MATIN in % ([1]; dosage 5 g/ha) [%]	Post-emergence action against POLCO in % ([2]; dosage 5 g/ha) [%]	Post-emergence action against POLCO in % ([2]; dosage 20 g/ha) [%]	Post-emergence action at 1.25 g/ha against AMARE in % [3] [%]	Post-emergence action at 5 g/ha against AMARE in % [3] [%]	Post-emergence action at 20 g/ha against AMARE in % [3] [%]	Post-emergence action against VIOTR (Viola tricolor (VIOTR); 5 g/ha) [%]	Post-emergence action against VIOTR (Viola tricolor (VIOTR); 20 g/ha) [%]	Post-emergence action at 5 g/ha against ABUTH in % [4] [%]	Post-emergence action at 20 g/ha against ABUTH in % [4] [%]	Post-emergence action against PHBPU in % ([5]; dosage 1.25 g/ha) [%]	Post-emergence action against PHBPU in % ([5]; dosage 5 g/ha) [%]	Post-emergence action against PHBPU in % ([5]; dosage 20 g/ha) [%]	Post-emergence action against VERPE (Veronica persica (VERPE); 1.25 g/ha) [%]	Post-emergence action against VERPE (Veronica persica (VERPE); 5 g/ha) [%]	Post-emergence action against VERPE (Veronica persica (VERPE); 20 g/ha) [%]	Post-emergence action against TRZAS (crop plant compatibility) ([6]; 1.25 g/ha) [%]	Post-emergence action against ECHCG in % ([7]; dosage 20 g/ha) [%]	Post-emergence action at 20 g/ha against ALOMY in % [8, 9] [%]	Post-emergence action against MATIN in % ([1]; dosage 20 g/ha) [%]	further results
Cn1c(C(F)(F)F)cc(=O)n(-c2cc(Oc3ccccc3OCC(=O)OCC3CCCO3)c(Cl)cc2F)c1=O (racemic) [Example 1.7-71]	100	–	–	–	–	–	–	–	–	–	–	–	–	–	–	–	–	–	–	–	–
COCCOCCOC(=O)COc1ccccc1Oc1cc(-n2c(=O)cc(C(F)(F)F)n(C)c2=O)c(F)cc1C#N [I.9-23]	80	100	100	100	100	100	100	100	100	100	80	100	100	80	100	100	0	100	80	100	Post-emergence action against VIOTR (Viola tricolor (VIOTR); 1.25 g/ha): 100%; Post-emergence action at 1.25 g/ha against ABUTH in % [4]: 80%; Post-emergence action against ORYSA (crop plant compatibility) (Oryza sativa (ORYSA); 1.25 g/ha): 0%; Post-emergence action against ORYSA (crop plant compatibility) (Oryza sativa (ORYSA); 5 g/ha): 0%; Post-emergence action against ORYSA in % (Oryza sativa (ORYSA); 20 g/ha, crop plant compatibility): 20%; Post-emergence action against TRZAS (crop plant compatibility) ([6]; 5 g/ha): 20%; Post-emergence action against TRZAS (crop plant compatibility) ([6]; 20 g/ha): 20%; Post-emergence action against SETVI (Setaria viridis (SETVI)): 100%; Post-emergence action against SETVI in % (Setaria viridis (SETVI); dosage 1.25 g/ha): 100%; Post-emergence action against SETVI in % (Setaria viridis (SETVI); dosage 5 g/ha): 100%
COCCOC(=O)COc1cccc(F)c1Oc1cc(-n2c(=O)cc(C(F)(F)F)n(C)c2=O)c(F)cc1Cl [I.19-1]	90	100	100	100	100	100	100	100	100	100	100	100	100	100	100	100	20	100	100	100	Post-emergence action against VIOTR (Viola tricolor (VIOTR); 1.25 g/ha): 100%; Post-emergence action at 1.25 g/ha against ABUTH in % [4]: 100%; Post-emergence action at 1.25 g/ha against ECHCG in % ([7]; 1.25 g/ha, rated visually after about 3 weeks vs untreated controls, 100% = plants have died): 100%; Post-emergence action against ECHCG in % ([7]; dosage 5 g/ha): 100%; Post-emergence action against SETVI (Setaria viridis (SETVI)): 100%; Post-emergence action against SETVI in % (Setaria viridis (SETVI); dosage 1.25 g/ha): 100%; Post-emergence action against SETVI in % (Setaria viridis (SETVI); dosage 5 g/ha): 100%
COCCOCCOC(=O)COc1cccc(F)c1Oc1cc(-n2c(=O)cc(C(F)(F)F)n(C)c2=O)c(F)cc1Cl [I.19-23]	100	100	100	100	100	100	100	100	100	100	100	100	100	100	100	100	10	100	100	100	Post-emergence action against POLCO in % ([2]; dosage 1.25 g/ha): 100%; Post-emergence action against ORYSA (crop plant compatibility) (Oryza sativa (ORYSA); 1.25 g/ha): 10%; Post-emergence action against ECHCG in % ([7]; dosage 5 g/ha): 100%; Post-emergence action at 5 g/ha against ALOMY in % ([8]; 5 g/ha, rated visually after about 3 weeks vs untreated controls, 100% = plants have died): 80%; Post-emergence action against SETVI (Setaria viridis (SETVI)): 100%; Post-emergence action against SETVI in % (Setaria viridis (SETVI); dosage 1.25 g/ha): 100%; Post-emergence action against SETVI in % (Setaria viridis (SETVI); dosage 5 g/ha): 100%
CCCCOC(=O)COc1ccccc1Oc1cc(-n2c(=O)cc(C(F)(F)F)n(C)c2=O)c(F)cc1Cl [a-17, reference compound]	–	–	–	–	–	–	–	–	–	–	–	–	–	–	–	–	–	–	–	–	ORYSA (efficacy in %) (Oryza sativa (ORYSA); comparative test C, application rate 1.25 g/ha, crop plant compatibility): 20%; ECHCG (efficacy in %) [7, 10]: 60%; MATIN (efficacy in %) [1, 10]: 30%; SETVI (efficacy in %) (Setaria viridis (SETVI); [10]): 80%
COCCOC(=O)COc1ccccc1Oc1cc(-n2c(=O)cc(C(F)(F)F)n(C)c2=O)c(F)cc1Cl [drawing 110]	–	–	–	–	–	–	–	–	–	–	–	–	–	–	–	–	–	–	–	–	ALOMY (efficacy in %) [8]: 80%
Cn1c(C(F)(F)F)cc(=O)n(-c2cc(Oc3ccccc3OCC(=O)OC3COC3)c(Cl)cc2F)c1=O [drawing 111]	–	–	–	–	–	–	–	–	–	–	–	–	–	–	–	–	–	–	–	–	ALOMY (efficacy in %) [8]: 100%
CCCCOC(=O)COc1ccccc1Oc1cc(-n2c(=O)cc(C(F)(F)F)n(C)c2=O)c(F)cc1Cl [drawing 112]	–	–	–	–	–	–	–	–	–	–	–	–	–	–	–	–	–	–	–	–	ALOMY (efficacy in %) [8]: 30%
